Experimental data from article PMC10296415, “Methyl-Thiol-Bridged Oxadiazole and Triazole Heterocycles as Inhibitors of NF-κB in Chronic Myelogenous Leukemia Cells” (Biomedicines, 2023).

Columns and labels:
MCF-7 cell line = experiment: MTT cell viability assay, MCF-7; format: cell-based
Procedure: MCF-7 cells were purchased from Procell Life Science and Technology Co., Ltd., Wuhan, China, and cultured in MEM or Leibovitz’s L-15 medium containing 2% FBS. MCF-7 cells were maintained in a 5% CO2-humidified atmosphere at 37 °C. KCL22, LAMA84, and K562 cells were obtained from the American Type Culture Collection (Manassas, VA, USA). The KBM5 cell line was previously provided by Dr. Bharat Aggarwal (University of Texas M.D. Anderson Cancer Center, Houston, TX, USA). KBM5 cells were cultured in IMDM medium with 10% inactivated FBS and 1% penicillin-streptomycin. KCL22, LAMA84, and K562 cells were cultured in RPMI with 10% FBS and 1% penicillin-streptomycin antibiotics and maintained at 37 °C in a 5% CO2 chamber.
(§1) Cells (1 × 10^4 cells/well) were seeded on a 96-well plate and treated with 4c (0, 5, 10, 15, 30, 50 µM) for 24 h. After 24 h of treatment, 30 µL of MTT solution (2 mg/mL) for 2 h, followed by MTT lysis overnight. Cell viability was analyzed by measuring the absorbance of lysed MTT crystals using VARIOSKAN LUX (Thermo Fisher Scientific Inc., Waltham, MA, USA) at 570 nm.

[1] = DFT frontier molecular orbital calculations
Procedure: Computational DFT studies for the molecules were performed using Gaussian09 [35]. The molecule was built and visualized by the Gaussview 5 program package. The molecular geometry of the molecules was optimized at the B3LYP level with a 6-311++G (d,p) basis set.
FMO analysis of compound 4c was performed using the B3LYP method with a 6-311 (2d, p) basis set. The HOMO of a molecule represents the site where the electron density is highest and is involved in electron donation, whereas the LUMO represents the site where the electron density is lowest and is involved in electron acceptance. The ELUMO-EHOMO energy gap is directly related to the molecule’s chemical reactivity and kinetic stability. The molecule has a smaller energy gap, which is attributed to less stability and more reactivity. In contrast, the molecule has a large energy gap, attributed to being less chemically reactive and having high chemical stability with greater hardness. […] It is observed that the HOMO-LUMO energy gap of 4l decreased by 1.24 eV and 1.04 eV in alpha and beta orbitals, respectively, when compared with the 4c molecule. […] In contrast, LUMO orbitals were localized on dichlorophenyl, triazole groups, and sulphur atoms of the lead molecule 4c. The chemical potential values for 4c and 4i were estimated to be −4.23 eV and −3.91 eV, respectively, and reflects their significant electron-accepting capacity. […]

MCF-10A cells = experiment: Cytotoxicity assay, MCF-10A; format: cell-based; conditions: normal mammary epithelial cells
Procedure: as §1

[2] = Homo sapiens, MCF7, viability of MCF-7 cell line

| SMILES | melting point [°C] | IC50 (MCF-7 cell line; [2]) [µM] | also measured |
| --- | --- | --- | --- |
| COc1ccc(Cc2nnc(SCc3cn(-c4cccc(Cl)c4)nn3)o2)cc1OC [Compound 4n, 2-(((1-(3-Chlorophenyl)-1H-1,2,3-triazol-4-yl)methyl)thio)-5-(3,4-dimethoxybenzyl)-1,3,4-oxadiazole] | 70 to 72 | 23.2 ± 1.37 | – |
| COc1ccc(Cc2nnc(SCc3cn(-c4ccc(O)cc4)nn3)o2)cc1 [Compound 4g, 4-(4-(((5-(4-Methoxybenzyl)-1,3,4-oxadiazol-2-yl)thio)methyl)-1H-1,2,3-triazol-1-yl)phenol] | 94 to 96 | 29.7 ± 1.47 | – |
| COc1ccc(Cc2nnc(SCc3cn(-c4ccc(Cl)c(Cl)c4)nn3)o2)cc1OC [Compound 4l, 2-(((1-(3,4-Dichlorophenyl)-1H-1,2,3-triazol-4-yl)methyl)thio)-5-(3,4-dimethoxybenzyl)-1,3,4-oxadiazole] | 102 to 104 | 23.8 ± 1.38 | decrease of HOMO-LUMO energy gap compared with the 4c molecule ([1]; alpha orbitals): 1.24 eV; decrease of HOMO-LUMO energy gap compared with the 4c molecule ([1]; beta orbitals): 1.04 eV |
| COc1ccc(Cc2nnc(SCc3cn(-c4ccc(Cl)cc4)nn3)o2)cc1OC [Compound 4j, 2-(((1-(4-Chlorophenyl)-1H-1,2,3-triazol-4-yl)methyl)thio)-5-(3,4-dimethoxybenzyl)-1,3,4-oxadiazole] | 72 to 74 | 40.5 ± 1.61 | – |
| COc1ccc(Cc2nnc(SCc3cn(-c4ccc(Cl)cc4)nn3)o2)cc1 [Compound 4a, 2-(((1-(4-Chlorophenyl)-1H-1,2,3-triazol-4-yl)methyl)thio)-5-(4-methoxybenzyl)-1,3,4-oxadiazole] | 92 to 94 | 9.58 ± 0.98 | IC50 (MCF-10A cells; Homo sapiens, MCF-10A): > 100 µM |
| COc1ccc(Cc2nnc(SCc3cn(-c4ccccc4)nn3)o2)cc1 [Compound 4d, 2-(4-Methoxybenzyl)-5-(((1-phenyl-1H-1,2,3-triazol-4-yl)methyl)thio)-1,3,4-oxadiazole] | 60 to 62 | 25.8 ± 1.41 | – |
| COc1ccc(-n2cc(CSc3nnc(Cc4ccc(OC)c(OC)c4)o3)nn2)cc1 [Compound 4o, 2-(3,4-Dimethoxybenzyl)-5-(((1-(4-methoxyphenyl)-1H-1,2,3-triazol-4-yl)methyl)thio)-1,3,4-oxadiazole] | 76 to 78 | 35.8 ± 1.55 | – |
| COc1ccc(Cc2nnc(SCc3cn(-c4ccc(OC)cc4)nn3)o2)cc1 [Compound 4f, 2-(4-Methoxybenzyl)-5-(((1-(4-methoxyphenyl)-1H-1,2,3-triazol-4-yl)methyl)thio)-1,3,4-oxadiazole] | 90 to 92 | 34.5 ± 1.54 | – |
| COc1ccc(Cc2nnc(SCc3cn(-c4ccccc4O)nn3)o2)cc1OC [Compound 4p, 2-(4-(((5-(3,4-Dimethoxybenzyl)-1,3,4-oxadiazol-2-yl)thio)methyl)-1H-1,2,3-triazol-1-yl)phenol] | 122 to 124 | 65 ± 1.81 | – |
| COc1ccc(Cc2nnc(SCc3cn(-c4ccc(C)cc4)nn3)o2)cc1 [Compound 4i, 2-(4-Methoxybenzyl)-5-(((1-(p-tolyl)-1H-1,2,3-triazol-4-yl)methyl)thio)-1,3,4-oxadiazole] | 104 to 106 | 45.4 ± 1.66 | – |
| COc1ccc(Cc2nnc(SCc3cn(-c4ccc(C)cc4)nn3)o2)cc1OC [Compound 4q, 2-(3,4-Dimethoxybenzyl)-5-(((1-(p-tolyl)-1H-1,2,3-triazol-4-yl)methyl)thio)-1,3,4-oxadia-zole] | – | – | IC50 (MCF-7 cell line; viability of MCF-7 cell line): 19.7 ± 1.3 µM; IC50 (MCF-10A cells): > 100 µM |
| COc1ccc(Cc2nnc(SCc3cn(-c4ccccc4)nn3)o2)cc1OC [Compound 4m, 2-(3,4-Dimethoxybenzyl)-5-(((1-phenyl-1H-1,2,3-triazol-4-yl)methyl)thio)-1,3,4-oxadiazole] | 46 to 48 | 28.3 ± 1.45 | – |
| COc1ccc(Cc2nnc(SCc3cn(-c4ccccc4C)nn3)o2)cc1 [Compound 4h, 2-(4-Methoxybenzyl)-5-(((1-(o-tolyl)-1H-1,2,3-triazol-4-yl)methyl)thio)-1,3,4-oxadiazole] | – | 26.2 ± 1.42 | – |
| COc1ccc(Cc2nnc(SCc3cn(-c4cccc(Cl)c4)nn3)o2)cc1 [Compound 4e, 2-(((1-(3-Chlorophenyl)-1H-1,2,3-triazol-4-yl)methyl)thio)-5-(4-methoxybenzyl)-1,3,4-oxadiazole] | 94 to 96 | 9 to 16 | IC50 (MCF-7 cell line; viability of MCF-7 cell line): 16.9 ± 1.23 µM; IC50 (MCF-10A cells; Homo sapiens, MCF-10A): > 100 µM |
| COc1ccc(Cc2nnc(SCc3cn(-c4ccccc4C)nn3)o2)cc1OC [Compound 4r, 2-(3,4-Dimethoxybenzyl)-5-(((1-(o-tolyl)-1H-1,2,3-triazol-4-yl)methyl)thio)-1,3,4-oxadia-zole] | – | – | IC50 (MCF-7 cell line; viability of MCF-7 cell line): 35.7 ± 1.55 µM |
| COc1ccc(Cc2nnc(SCc3cn(-c4ccc(Br)cc4)nn3)o2)cc1 [Compound 4b, 2-(((1-(4-Bromophenyl)-1H-1,2,3-triazol-4-yl)methyl)thio)-5-(4-methoxybenzyl)-1,3,4-oxadia-zole] | – | – | IC50 (MCF-7 cell line; viability of MCF-7 cell line): 8.44 ± 0.93 µM; IC50 (MCF-10A cells): > 100 µM |
| COc1ccc(Cc2nnc(SCc3cn(-c4ccc(Br)cc4)nn3)o2)cc1OC [Compound 4k, 2-(((1-(4-Bromophenyl)-1H-1,2,3-triazol-4-yl)methyl)thio)-5-(3,4-dimethoxybenzyl)-1,3,4-oxadiazole] | 98 to 100 | 31.9 ± 1.5 | – |
| COc1cccc2c1C(=O)c1c(O)c3c(c(O)c1C2=O)C[C@@](O)(C(=O)CO)C[C@@H]3O[C@H]1C[C@H](N)[C@H](O)[C@H](C)O1 [Doxorubicin, reference compound] | – | 0.91 ± 0.04 | – |
